The target of test [1] is Cyclin-dependent kinase 4 (Homo sapiens, UniProt P11802). Nature of the test: Inhibitory concentration against cyclin-dependent kinase 4.
Test [2] concerns the target Cyclin-dependent kinase 2 (Homo sapiens, UniProt P24941). Nature of the test: Inhibitory concentration against cyclin-dependent kinase 2.

Cyclin-dependent kinase 4, sequence (P11802 whole entry): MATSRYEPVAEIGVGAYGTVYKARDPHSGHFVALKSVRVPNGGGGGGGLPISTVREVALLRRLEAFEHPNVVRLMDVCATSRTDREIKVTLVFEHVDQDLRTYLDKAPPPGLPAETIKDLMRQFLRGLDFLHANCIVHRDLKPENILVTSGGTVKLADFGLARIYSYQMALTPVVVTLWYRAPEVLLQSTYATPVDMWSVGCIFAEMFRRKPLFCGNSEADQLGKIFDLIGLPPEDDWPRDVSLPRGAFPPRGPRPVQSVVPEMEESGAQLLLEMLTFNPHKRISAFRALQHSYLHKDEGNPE

As to `CN(C)CC(O)COc1ccc(Nc2nccc(Nc3ccccc3Br)n2)cc1` (stereo not drawn), the IC50 in test [1] was 1 µM; in test [2], 7 µM.
In the same order, the values of `CN(C)CC(O)COc1ccc(Nc2cc(Nc3ccc(Cl)cc3)ncn2)cc1` (stereo not drawn) are 41 µM and over 100 µM.
`CN(C)CC(O)COc1ccc(Nc2ncc(Br)c(N(CCCC(F)(F)F)c3ccccc3)n2)cc1` (stereo not drawn): the IC50 was 0.01 µM in test [1] and 0.2 µM in test [2].
Consider `CN(C)CC(O)COc1ccc(Nc2ncc(F)c(Nc3ccccc3)n2)cc1` (stereo not drawn), for which the values for the IC50 in test [1] and in test [2] were 0.3 µM and over 10 µM, respectively.
In the same order, the values of `CN(C)CC(O)COc1ccc(Nc2nccc(Nc3cccc(Cl)c3)n2)cc1` (stereo not drawn) are 2 µM and 5 µM.
In the same order, the values of `Cc1cnc(Nc2ccc(OCC(O)CN(C)C)cc2)nc1Nc1ccccc1` (stereo not drawn) are 0.8 µM and 8 µM.
The corresponding values for `CN(C)CC(O)COc1ccc(Nc2nccc(Nc3cc(Cl)ccc3Cl)n2)cc1` (stereo not drawn) are 0.8 µM and 1 µM.
With `CN(C)CC(O)COc1ccc(Nc2nccc(Nc3ccccc3C#N)n2)cc1` (stereo not drawn), the concentration for half-maximal inhibition (IC50) in test [1] came to 2 µM; in test [2] it was 4 µM.
The corresponding values for `CN(C)CC(O)COc1ccc(Nc2nccc(Nc3ccccc3F)n2)cc1` (stereo not drawn) are 1 µM and 7 µM.
As for `COc1ccc(Nc2ccnc(Nc3ccc(OCC(O)CN(C)C)cc3)n2)cc1` (stereo not drawn), the values for the concentration for half-maximal inhibition (IC50) in test [1] and in test [2] were 2 µM and 36 µM, respectively.
In the same order, the values of `Cc1ccc(Cl)c(Nc2ccnc(Nc3ccc(OCC(O)CN(C)C)cc3)n2)c1` (stereo not drawn) are 2 µM and 5 µM.
As to `COc1ccc(Nc2cc(Nc3ccc(OCC(O)CN(C)C)cc3)ncn2)cc1` (stereo not drawn), the IC50 in test [1] is 57 µM; in test [2], over 100 µM.
The corresponding values for `CN(C)CC(O)COc1ccc(Nc2nccc(N(CC#N)c3cc(Cl)ccc3Cl)n2)cc1` (stereo not drawn) are 0.1 µM and 0.7 µM.
Turning to `Cc1ccc(F)c(Nc2cc(Nc3ccc(OCC(O)CN(C)C)cc3)ncn2)c1` (stereo not drawn), the IC50 was determined as 4 µM in test [1] and 81 µM in test [2].
As for `CN(C)CC(O)COc1ccc(Nc2nccc(Nc3ccc(Cl)cc3)n2)cc1` (stereo not drawn), the IC50 in test [1] stood at 1 µM; in test [2], 18 µM.
`Cc1ccc(Cl)c(Nc2cc(Nc3ccc(OCC(O)CN(C)C)cc3)ncn2)c1` (stereo not drawn): the IC50 in test [1] turned out to be 2 µM; in test [2], 22 µM.
For the compound `CN(C)CC(O)COc1ccc(Nc2nccc(Nc3ccccc3Cl)n2)cc1` (stereo not drawn), the IC50 in test [1] is 1 µM; in test [2], 6 µM.
In the same order, the values of `Cc1ccc(Nc2cc(Nc3ccc(OCC(O)CN(C)C)cc3)ncn2)cc1` (stereo not drawn) are 25 µM and over 100 µM.
In the same order, the values of `CN(C)CC(O)COc1ccc(Nc2nccc(Nc3ccccc3)n2)cc1` (stereo not drawn) are 2 µM and 34 µM.
On to `CN(C)CC(O)COc1ccc(Nc2ncc(Cl)c(Nc3ccccc3)n2)cc1` (stereo not drawn), for which the results for the IC50 in test [1] and in test [2] were 0.1 µM and 0.5 µM, respectively.
In the same order, the values of `Cc1ccc(Nc2ccnc(Nc3ccc(OCC(O)CN(C)C)cc3)n2)cc1` (stereo not drawn) are 2 µM and 26 µM.
The corresponding values for `CN(C)CC(O)COc1ccc(Nc2nccc(N(Cc3ccccc3)c3cc(Cl)ccc3Cl)n2)cc1` (stereo not drawn) are 1 µM and over 10 µM.
Consider `C#CCN(c1ccnc(Nc2ccc(OCC(O)CN(C)C)cc2)n1)c1cc(Cl)ccc1Cl` (stereo not drawn), for which the IC50 worked out at 0.2 µM in test [1] and 2 µM in test [2].
As to `CN(C)CC(O)COc1ccc(Nc2nccc(Nc3cc(C(F)(F)F)ccc3F)n2)cc1` (stereo not drawn), the IC50 in test [1] came to 0.6 µM; in test [2] it was 1 µM.
The corresponding values for `CN(C)CC(O)COc1ccc(Nc2nccc(N(CCC#N)c3cc(Cl)ccc3Cl)n2)cc1` (stereo not drawn) are 0.3 µM and 3 µM.
The corresponding values for `CN(C)CC(O)COc1ccc(Nc2ncc(Br)c(Nc3ccccc3)n2)cc1` (stereo not drawn) are 0.1 µM and 0.3 µM.
The corresponding values for `COc1ccccc1Nc1ccnc(Nc2ccc(OCC(O)CN(C)C)cc2)n1` (stereo not drawn) are 19 µM and 15 µM.
Turning to `Cc1ccc(F)c(Nc2ccnc(Nc3ccc(OCC(O)CN(C)C)cc3)n2)c1` (stereo not drawn), the IC50 in test [1] was found to be 0.7 µM; in test [2], 2 µM.
On to `CN(C)CC(O)COc1ccc(Nc2nccc(N(CCCC(F)(F)F)c3cc(Cl)ccc3Cl)n2)cc1` (stereo not drawn), for which the half-maximal inhibitory concentration (IC50) worked out at 0.2 µM in test [1] and 12 µM in test [2].

These data come from ChEMBL document CHEMBL1136192, “Cyclin-dependent kinase 4 inhibitors as a treatment for cancer. Part 2: identification and optimisation of substituted 2,4-bis anilino pyrimidines” (Bioorg Med Chem Lett, 2003).
